Test results published in patent US20240381872A1, “SUBSTITUTED 2,3-DIHYDRO[1,3]THIAZOLO[4,5-B]PYRIDINES, SALTS THEREOF AND THEIR USE AS HERBICIDALLY ACTIVE SUBSTANCES” (BAYER AKTIENGESELLSCHAFT, priority 2021, published 2024).

What was measured:
Format in all cases: in vivo
Setaria viridis (SETVI) = assay: Herbicidal pre-emergence action, section A (Table A8)
Text: (§1) Seeds of mono- and dicotyledonous weed plants were sown in plastic pots (double sowings with one species of mono- and one species of dicotyledonous weed plants per pot), in sandy loam, and covered with soil. The compounds according to the invention, formulated in the form of wettable powders (WP) or as emulsifiable concentrates (EC), were applied to the surface of the covering soil as aqueous suspension or emulsion, with the addition of 0.5% of an additive, at an application rate of 600 l of water per hectare (converted). Following treatment, the pots were placed in a greenhouse and kept under optimum growth conditions for the test plants. The visual grading of the damage to the test plants was carried out after ca. 3 weeks in comparison to untreated controls (herbicidal effect in percent (%): 100% effect=plants have died off, 0% effect=as control plants).

[1] = test system: Abutilon theophrasti (ABUTH); assay: Herbicidal post-emergence action, section B (Table B1); details: application rate 1280 g/ha, rated visually after about 3 weeks
Method: (§2) Seeds of mono- and dicotyledonous weed plants were placed in plastic pots in sandy loam soil (doubly sown with in each case one species of mono- or dicotyledonous weed plants per pot), covered with soil and cultivated in a greenhouse under controlled growth conditions. 2 to 3 weeks after sowing, the test plants were treated at the one-leaf stage. The compounds of the invention, formulated in the form of wettable powders (WP) or as emulsion concentrates (EC), were applied onto the green parts of the plants as aqueous suspension or emulsion with addition of 0.5% additive at a water application rate of 600 liters per hectare (converted). After the test plants had been kept in the greenhouse under optimum growth conditions for about 3 weeks, the activity of the preparations was rated visually in comparison to untreated controls. For example, 100% activity=the plants have died, 0% activity=like control plants.

[2] = test system: Amaranthus retroflexus (AMARE); assay: Herbicidal pre-emergence action, section A (Table A11); details: application rate 320 g/ha
Text: as §1

Stellaria media (STEME) [3] = assay: Herbicidal pre-emergence action, section A (Table A9); details: application rate 1280 g/ha
Text: as §1

Poa annua (POAAN) [4] = assay: Herbicidal pre-emergence action, section A (Table A7); details: application rate 1280 g/ha, visual grading after ca. 3 weeks vs untreated controls
Text: as §1

Kochia scoparia (KCHSC) [5] = assay: Herbicidal post-emergence action, section B (Table B4); details: visual rating about 3 weeks after treatment vs untreated controls
Method: as §2

Kochia scoparia (KCHSC) [6] = assay: Herbicidal pre-emergence action, section A (Table A4); details: visual grading after ca. 3 weeks vs untreated controls
Text: as §1

Stellaria media (STEME) [7] = assay: Herbicidal post-emergence action, section B (Table B9); details: application rate 1280 g/ha, visual rating about 3 weeks after treatment vs untreated controls
Method: as §2

[8] = test system: Digitaria sanguinalis (DIGSA); assay: Herbicidal pre-emergence action, section A (Table A12); details: application rate 1280 g/ha
Text: as §1

[9] = test system: Echinochloa crus-galli (ECHCG); assay: Herbicidal pre-emergence action, section A (Table A3); details: visual grading after ca. 3 weeks vs untreated controls
Text: as §1

[10] = test system: Matricaria inodora (MATIN); assay: Herbicidal pre-emergence action, section A (Table A6); details: application rate 1280 g/ha; visual grading after ca. 3 weeks vs untreated controls
Text: as §1

Lolium rigidum (LOLRI) = assay: Herbicidal pre-emergence action, section A (Table A5); details: application rate 1280 g/ha, visual grading after ca. 3 weeks vs untreated controls
Text: as §1

[11] = test system: Amaranthus retroflexus (AMARE); assay: Herbicidal post-emergence action, section B (Table B11); details: visual rating about 3 weeks after treatment vs untreated controls; for post-emergence activity against AMARE in %: application rate 1280 g/ha
Method: as §2

Poa annua (POAAN) [12] = assay: Herbicidal post-emergence action, section B (Table B7); details: application rate 1280 g/ha, visual rating about 3 weeks after treatment vs untreated controls
Method: as §2

Veronica persica (VERPE) [13] = assay: Herbicidal post-emergence action, section B (Table B10); details: visual rating about 3 weeks after treatment vs untreated controls
Method: as §2

[14] = test system: Echinochloa crus-galli (ECHCG); assay: Herbicidal post-emergence action, section B (Table B3); details: application rate 1280 g/ha, rated visually after about 3 weeks
Method: as §2

Veronica persica (VERPE) [15] = assay: Herbicidal pre-emergence action, section A (Table A10); details: Veronica persica, 504 h, application rate 1280 g/ha, read-out: pre-emergence activity against VERPE in %
Text: as §1

## Cc1cccc(F)c1-c1nc2c(cc1Br)SCN2 [Example I-032]
Setaria viridis (SETVI); application rate 320 g/ha
  pre-emergence activity against SETVI in %: 100%
[1]
  post-emergence activity against ABUTH in %: 90%
[2]
  pre-emergence activity against AMARE in %: 90%
Stellaria media (STEME) [3]
  pre-emergence activity against STEME in %: 100%
Poa annua (POAAN) [4]
  pre-emergence activity against POAAN in %: 100%
Kochia scoparia (KCHSC) [5]; application rate 1280 g/ha
  post-emergence activity against KCHSC in %: 90%
Kochia scoparia (KCHSC) [6]; application rate 1280 g/ha
  pre-emergence activity against KCHSC in %: 90%
Stellaria media (STEME) [7]
  post-emergence activity against STEME in %: 90%
[8]
  pre-emergence activity against DIGSA in %: 100%
[9]; application rate 320 g/ha
  pre-emergence activity against ECHCG in %: 100%
[10]
  pre-emergence activity against MATIN in %: 90%
Lolium rigidum (LOLRI)
  pre-emergence activity against LOLRI in %: 100%
[11]
  post-emergence activity against AMARE in %: 90%

## COC(=O)CCC(=O)N1CSc2cc(Br)c(-c3ccc(F)cc3F)nc21 [Example I-085]
Setaria viridis (SETVI); application rate 1280 g/ha
  pre-emergence activity against SETVI in %: 100%
[1]
  post-emergence activity against ABUTH in %: 90%
Poa annua (POAAN) [4]
  pre-emergence activity against POAAN in %: 100%
Poa annua (POAAN) [12]
  post-emergence activity against POAAN in %: 90%
Stellaria media (STEME) [7]
  post-emergence activity against STEME in %: 90%
[11]
  post-emergence activity against AMARE in %: 90%
Veronica persica (VERPE) [13]; application rate 320 g/ha
  post-emergence activity against VERPE in %: 100%
[14]
  post-emergence activity against ECHCG in %: 90%

## CCCC(=O)N1CSc2cc(Br)c(-c3ccccc3Cl)nc21 [Example I-042, 1-[6-bromo-5-(2-chlorophenyl)[1,3]thiazolo[4,5-b]pyridin-3(2H)-yl]butan-1-one]
Setaria viridis (SETVI); Setaria viridis, 504 h, application rate 1280 g/ha, read-out: pre-emergence activity against SETVI in %
  pest or weed control at 1280 g/ha: 100%
[1]; Abutilon theophrasti, 504 h, read-out: post-emergence activity against ABUTH in %
  pest or weed control at 1280 g/ha: 90%
[2]; Amaranthus retroflexus, 504 h, read-out: pre-emergence activity against AMARE in %
  pest or weed control at 320 g/ha: 90%
Stellaria media (STEME) [3]; Stellaria media, 504 h, read-out: pre-emergence activity against STEME in %
  pest or weed control at 1280 g/ha: 90%
Poa annua (POAAN) [4]; Poa annua, pre-emergence, 504 h, read-out: pre-emergence activity against POAAN in %
  pest or weed control at 1280 g/ha: 100%
Poa annua (POAAN) [12]; Poa annua, post-emergence, 504 h, read-out: post-emergence activity against POAAN in %
  pest or weed control at 1280 g/ha: 90%
Kochia scoparia (KCHSC) [5]; Bassia scoparia, post-emergence, 504 h, application rate 320 g/ha, read-out: post-emergence activity against KCHSC in %
  pest or weed control at 320 g/ha: 90%
Kochia scoparia (KCHSC) [6]; Bassia scoparia, pre-emergence, 504 h, application rate 320 g/ha, read-out: pre-emergence activity against KCHSC in %
  pest or weed control at 320 g/ha: 90%
Stellaria media (STEME) [7]; Stellaria media, post-emergence, 504 h, read-out: post-emergence activity against STEME in %
  pest or weed control at 1280 g/ha: 90%
[8]; Digitaria sanguinalis, 504 h, read-out: pre-emergence activity against DIGSA in %
  pest or weed control at 1280 g/ha: 100%
Veronica persica (VERPE) [15]
  pest or weed control at 1280 g/ha: 90%
[9]; Echinochloa crus-galli, pre-emergence, 504 h, application rate 1280 g/ha, read-out: pre-emergence activity against ECHCG in %
  pest or weed control at 1280 g/ha: 100%
Lolium rigidum (LOLRI); Lolium rigidum, pre-emergence, 504 h, read-out: pre-emergence activity against LOLRI in %
  pest or weed control at 1280 g/ha: 90%
[11]; Amaranthus retroflexus, post-emergence, 504 h, application rate 320 g/ha, read-out: post-emergence activity against AMARE in %
  pest or weed control at 320 g/ha: 90%
Veronica persica (VERPE) [13]; Veronica persica, post-emergence, 504 h, application rate 1280 g/ha, read-out: post-emergence activity against VERPE in %
  pest or weed control at 1280 g/ha: 90%
[14]; Echinochloa crus-galli, 504 h, read-out: post-emergence activity against ECHCG in %
  pest or weed control at 1280 g/ha: 90%
